Measurements from PMC11843613, “Further Optimization of the mGlu1 PAM VU6024578/BI02982816: Discovery and Characterization of VU6033685” (ACS Chemical Neuroscience, 2025).

What was measured:
rat mGlu1 = rat mGlu1 (Rattus norvegicus, UniProt P23385); assay: mGlu1 PAM functional assay (rat); assay type: cell-based
CYP450 2C9 = biological target: T1, CYP450 2C9 (Homo sapiens, UniProt P11712); assay: Inhibition of cytochrome P450 enzymes in human liver microsomes, 2C9; assay type: in vitro ADME
T1 construct: 0.1 mg/mL human liver microsomes (HLM); from tissue; host or cells: human liver microsomes
T1 sequence (P11712 whole entry): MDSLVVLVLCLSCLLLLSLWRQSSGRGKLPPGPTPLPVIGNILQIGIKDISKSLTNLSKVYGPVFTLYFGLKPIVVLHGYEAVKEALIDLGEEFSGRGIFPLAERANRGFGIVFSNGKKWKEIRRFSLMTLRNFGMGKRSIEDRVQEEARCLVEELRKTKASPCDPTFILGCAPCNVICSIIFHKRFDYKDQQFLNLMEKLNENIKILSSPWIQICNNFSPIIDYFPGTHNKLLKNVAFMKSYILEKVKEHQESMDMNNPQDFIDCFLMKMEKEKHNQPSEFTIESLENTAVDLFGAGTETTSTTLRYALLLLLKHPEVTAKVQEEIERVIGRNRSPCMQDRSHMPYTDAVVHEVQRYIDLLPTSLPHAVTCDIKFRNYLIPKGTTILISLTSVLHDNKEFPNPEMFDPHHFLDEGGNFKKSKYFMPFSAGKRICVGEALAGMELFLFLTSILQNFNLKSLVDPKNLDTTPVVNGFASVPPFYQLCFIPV
Description: (§1) Inhibition of Cytochrome P450 Enzymes: A cocktail of substrates for cytochrome P450 enzymes (1A2: Phenacetin, 10 µM; 2C9: Diclofenac, 5 µM; 2D6: Dextromethorphan, 5 µM; 3A4:
(§2) Midazolam, 2 µM) were mixed for cocktail analysis. For P450 2C19, the substrate stock (Mephenytoin, 40 µM )and substrate mix were prepared separately for discrete analysis. The […]
(§3) positive control for pan-P450 inhibition (miconazole) was included alongside each test compound […]
(§4) A reaction mixture of 100 mM Kpi, pH 7.4, 0.1 mg/mL human liver microsomes (HLM) and Substrate Mix is prepared and aliquoted into a 96-deepwell block. Test compound and positive control (in duplicate) were then added such that the final concentration of test compound ranged from 0.1 – 30 µM. The plate was vortexed briefly and then pre-incubated at 37 °C while shaking for 15 minutes. The reaction was initiated with the addition of NADPH (1 mM final concentration). The incubation continued for 8 min and the reaction quenched by 2x volume of cold acetonitrile containing internal standard (50 nM carbamazepine). The plate was centrifuged for 10 minutes (4000 rcf, 4°C) and the resulting supernatant diluted 1:1 with water for LC/MS/MS analysis. A 12 point standard curve of substrate metabolites over the range of 0.98 nM to 2000 […]
(§5) Samples were analyzed via electrospray ionization (ESI) on an AB Sciex API-4000 (Foster City, CA) triple-quadrupole instrument that was coupled with Shimadzu LC-10AD pumps (Columbia, MD) and a Leap Technologies CTC PAL auto-sampler (Carrboro, NC). Analytes were separated by gradient elution using a Fortis C18 3.0 x 50 mm, 3 µm column (Fortis Technologies Ltd, Cheshire, UK) thermostated at 40°C. HPLC mobile phase A was 0.1% formic acid in water (pH unadjusted), mobile phase B was 0.1% formic acid in acetonitrile (pH unadjusted). The gradient […]
(§6) 90% B for 0.1 min and returned to 10% B in 0.1 min followed by a re-equilibration (0.9 min). The total run time was 2.5 min and the HPLC flow rate was 0.5 mL/min. The source temperature was set at 500°C and mass spectral analyses were performed using multiple reaction monitoring (MRM), with transitions specific for each compound utilizing a Turbo-Ionspray® source in positive ionization mode (5.0 kV spray voltage).
(§7) The IC50 values for each compound were obtained for the individual CYP enzymes by quantitating the inhibition of metabolite formation for each probe substrate. A 0 µM compound condition (or control) was set to 100% enzymatic activity and the effect of increasing test compound concentrations on enzymatic activity could then be calculated from the % of control activity.
(§8) Curves were fitted using XLfit 5.2.2 (four-parameter logistic model, equation 201) to determine the concentration that produces half-maximal inhibition (IC50).

[1] = Plasma protein binding, equilibrium dialysis (rat); assay type: in vitro ADME; conditions: pH 7.4, rat plasma, read-out: fu plasma (r)
Description: (§9) page 13: at half log concentrations in DMSO were further diluted in assay buffer. The compounds or DMSO vehicle were added to cells and incubated for 2.5 min and an EC20 concentration of glutamate was added and incubated for 1 min. An ECmax concentration of glutamate was also added to cells that were incubated with DMSO vehicle to accurately calculate the EC20 calcium response. Data were normalized by subtracting the basal florescent peak before EC20 agonist addition from the maximal peak elicited by EC20 agonist and PAMs. Using GraphPad Prism 5.0, the concentration response curves were generated and the potencies of the mGlu1 PAMs were determined. DMPK Methods Plasma protein binding: The protein binding of each compound was determined in plasma via equilibrium dialysis employing RED Plates (ThermoFisher Scientific, Rochester, NY). Plasma was added to the 96 well plate containing test compound and mixed thoroughly for a final concentration of 5 µM. Subsequently, an aliquot of the plasma-compound mixture was transferred to the cis chamber (red) of the RED plate, with an phosphate buffer (25 mM, pH 7.4) in the trans chamber. The RED plate was sealed and incubated for 4 hours at 37°C with shaking. At completion, aliquots from each chamber were diluted 1:1 with either plasma (cis) or buffer (trans) and transferred to a new 96 well plate, at which time ice-cold acetonitrile containing internal standard (50 ng/mL carbamazepine) (2 volumes) was added to extract the matrices. The plate was centrifuged (3000 rcf, 10 min) and supernatants transferred and diluted 1:1 (supernatant: water) into a new 96 well plate, which was then sealed in preparation for LC/MS/MS analysis. Each compound was assayed in triplicate within the same 96-well plate. Fraction unbound was determined using the following equation F = Concbuffer u Conc plasma Intrinsic clearance: Human or rat hepatic microsomes (0.5 mg/mL) and 1 µM test compound were incubated in 100 mM potassium phosphate pH 7.4 buffer with 3 mM MgCl2 at 37°C with constant shaking. After a 5 min preincubation, the reaction was initiated by addition of NADPH (1 mM). At selected time intervals (0, 3, 7, 15, 25, and 45 min), aliquots were taken and subsequently placed into a 96-well plate containing cold acetonitrile with internal standard (50 ng/mL carbamazepine). Plates were then centrifuged at 3000 rcf (4° C) for 10 min, and the supernatant was transferred to a separate 96-well plate and diluted 1:1 with water for LC/MS/MS analysis. The in vitro half-life (T 1/2, min, Eq. 1), intrinsic clearance (CLint, mL/min/kg, Eq. 2) and subsequent predicted hepatic clearance (CLhep, mL/min/kg, Eq. 3) was determined S13

CYP450 3A4 = biological target: T2, CYP450 3A4 (Homo sapiens, UniProt P08684); assay: Inhibition of cytochrome P450 enzymes in human liver microsomes, 3A4; assay type: in vitro ADME
T2 construct: 0.1 mg/mL human liver microsomes (HLM); from tissue; host or cells: human liver microsomes
T2 sequence (P08684 whole entry): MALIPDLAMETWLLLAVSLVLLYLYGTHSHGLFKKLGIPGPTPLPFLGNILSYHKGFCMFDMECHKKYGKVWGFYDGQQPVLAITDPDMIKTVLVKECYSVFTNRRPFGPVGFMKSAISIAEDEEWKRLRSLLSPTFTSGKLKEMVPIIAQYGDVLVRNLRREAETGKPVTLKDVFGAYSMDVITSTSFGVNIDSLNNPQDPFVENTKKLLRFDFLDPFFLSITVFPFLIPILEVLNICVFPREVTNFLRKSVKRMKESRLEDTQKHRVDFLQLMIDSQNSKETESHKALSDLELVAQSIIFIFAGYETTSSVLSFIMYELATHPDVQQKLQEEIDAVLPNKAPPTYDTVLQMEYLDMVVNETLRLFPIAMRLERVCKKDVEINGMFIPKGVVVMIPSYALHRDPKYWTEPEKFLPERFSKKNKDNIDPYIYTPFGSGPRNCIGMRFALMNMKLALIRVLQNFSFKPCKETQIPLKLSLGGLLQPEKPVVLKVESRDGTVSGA
Description: as §1, §2, §3, §4, §5, §6, §7, §8

[2] = Plasma protein binding, equilibrium dialysis (human); assay type: in vitro ADME; conditions: pH 7.4, human plasma, read-out: fu plasma (h)
Description: as §9

[3] = Rat IV/PO pharmacokinetics; assay type: in vivo; conditions: for clearance / Vd / half-life / Tmax: plasma; for clearance / Vd: rat IV; for clearance: read-out: CLp; for F po / Tmax: rat PO; for Vd / half-life: rat; for Vd: iv, read-out: Vss; for half-life: read-out: Elimination t1/2 (converted)
P-gp = biological target: T3, P-gp (Homo sapiens, UniProt P08183); assay: MDCK-MDR1 efflux and permeability; assay type: in vitro ADME; conditions: for Papp / efflux ratio: dog, MDCK-MDR1; for efflux ratio: read-out: P-gp, MDCK-MDR1 ER
T3 construct: expressed in transfected cells; host or cells: MDCK-MDR1
T3 sequence (P08183 whole entry): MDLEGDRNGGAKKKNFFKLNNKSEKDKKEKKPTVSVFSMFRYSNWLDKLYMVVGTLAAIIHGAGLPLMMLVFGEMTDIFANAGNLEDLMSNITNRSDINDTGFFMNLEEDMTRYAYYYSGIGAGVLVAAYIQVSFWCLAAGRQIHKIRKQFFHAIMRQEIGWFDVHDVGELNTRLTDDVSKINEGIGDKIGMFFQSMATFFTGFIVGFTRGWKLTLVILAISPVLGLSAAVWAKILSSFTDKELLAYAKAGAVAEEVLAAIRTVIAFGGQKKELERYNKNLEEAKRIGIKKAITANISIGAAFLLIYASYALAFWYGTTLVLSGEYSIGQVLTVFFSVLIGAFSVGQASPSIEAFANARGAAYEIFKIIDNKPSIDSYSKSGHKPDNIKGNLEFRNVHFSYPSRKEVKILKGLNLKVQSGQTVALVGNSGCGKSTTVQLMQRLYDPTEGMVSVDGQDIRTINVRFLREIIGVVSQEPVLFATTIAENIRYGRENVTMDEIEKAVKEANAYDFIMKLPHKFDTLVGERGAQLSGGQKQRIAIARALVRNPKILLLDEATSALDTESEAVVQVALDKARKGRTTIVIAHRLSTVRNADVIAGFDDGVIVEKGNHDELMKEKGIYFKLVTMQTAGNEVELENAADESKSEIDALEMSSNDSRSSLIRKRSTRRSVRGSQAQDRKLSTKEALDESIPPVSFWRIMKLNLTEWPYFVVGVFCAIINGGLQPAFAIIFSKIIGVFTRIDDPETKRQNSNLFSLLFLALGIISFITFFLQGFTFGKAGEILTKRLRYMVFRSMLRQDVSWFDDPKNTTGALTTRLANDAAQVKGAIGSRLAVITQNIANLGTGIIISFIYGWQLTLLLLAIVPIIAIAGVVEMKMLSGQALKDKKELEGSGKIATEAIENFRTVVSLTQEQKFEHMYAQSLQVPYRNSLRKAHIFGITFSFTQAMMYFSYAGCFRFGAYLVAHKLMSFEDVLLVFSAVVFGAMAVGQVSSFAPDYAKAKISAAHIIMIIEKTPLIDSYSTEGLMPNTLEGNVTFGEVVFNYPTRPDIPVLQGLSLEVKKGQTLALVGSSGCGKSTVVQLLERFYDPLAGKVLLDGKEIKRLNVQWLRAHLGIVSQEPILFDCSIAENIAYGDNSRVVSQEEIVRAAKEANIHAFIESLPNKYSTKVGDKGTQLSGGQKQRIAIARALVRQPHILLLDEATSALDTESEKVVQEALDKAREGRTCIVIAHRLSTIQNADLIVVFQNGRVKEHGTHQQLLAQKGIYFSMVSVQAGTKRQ

[4] = Dose escalation PO PK study in mice; assay type: in vivo, mouse
[5] = Plasma protein binding (c); assay type: in vitro ADME, c (presumably cynomolgus); conditions: cynomolgus monkey, pH 7.4, read-out: fu plasma (c)
Description: page 13: at half log concentrations in DMSO were further diluted in assay buffer. The compounds or DMSO vehicle were added to cells and incubated for 2.5 min and an EC20 concentration of glutamate was added and incubated for 1 min. An ECmax concentration of glutamate was also added to cells that were incubated with DMSO vehicle to accurately calculate the EC20 calcium response. Data were normalized by subtracting the basal florescent peak before EC20 agonist addition from the maximal peak elicited by EC20 agonist and PAMs. Using GraphPad Prism 5.0, the concentration response curves were generated and the potencies of the mGlu1 PAMs were determined. DMPK Methods Plasma protein binding: The protein binding of each compound was determined in plasma via equilibrium dialysis employing RED Plates (ThermoFisher Scientific, Rochester, NY). Plasma was added to the 96 well plate containing test compound and mixed thoroughly for a final concentration of 5 µM. Subsequently, an aliquot of the plasma-compound mixture was transferred to the cis chamber (red) of the RED plate, with an phosphate buffer (25 mM, pH 7.4) in the trans chamber. The RED plate was sealed and incubated for 4 hours at 37°C with shaking. […] The in vitro half-life (T 1/2, min, Eq. 1), intrinsic clearance (CLint, mL/min/kg, Eq. 2) and subsequent predicted hepatic clearance (CLhep, mL/min/kg, Eq. 3) was determined S13

h and r mGlu2-4,6-8 = assay: mGlu subtype selectivity; assay type: cell-based, human, rat; conditions: Table 1

Sequence of rat mGlu1 (P23385 19-1199): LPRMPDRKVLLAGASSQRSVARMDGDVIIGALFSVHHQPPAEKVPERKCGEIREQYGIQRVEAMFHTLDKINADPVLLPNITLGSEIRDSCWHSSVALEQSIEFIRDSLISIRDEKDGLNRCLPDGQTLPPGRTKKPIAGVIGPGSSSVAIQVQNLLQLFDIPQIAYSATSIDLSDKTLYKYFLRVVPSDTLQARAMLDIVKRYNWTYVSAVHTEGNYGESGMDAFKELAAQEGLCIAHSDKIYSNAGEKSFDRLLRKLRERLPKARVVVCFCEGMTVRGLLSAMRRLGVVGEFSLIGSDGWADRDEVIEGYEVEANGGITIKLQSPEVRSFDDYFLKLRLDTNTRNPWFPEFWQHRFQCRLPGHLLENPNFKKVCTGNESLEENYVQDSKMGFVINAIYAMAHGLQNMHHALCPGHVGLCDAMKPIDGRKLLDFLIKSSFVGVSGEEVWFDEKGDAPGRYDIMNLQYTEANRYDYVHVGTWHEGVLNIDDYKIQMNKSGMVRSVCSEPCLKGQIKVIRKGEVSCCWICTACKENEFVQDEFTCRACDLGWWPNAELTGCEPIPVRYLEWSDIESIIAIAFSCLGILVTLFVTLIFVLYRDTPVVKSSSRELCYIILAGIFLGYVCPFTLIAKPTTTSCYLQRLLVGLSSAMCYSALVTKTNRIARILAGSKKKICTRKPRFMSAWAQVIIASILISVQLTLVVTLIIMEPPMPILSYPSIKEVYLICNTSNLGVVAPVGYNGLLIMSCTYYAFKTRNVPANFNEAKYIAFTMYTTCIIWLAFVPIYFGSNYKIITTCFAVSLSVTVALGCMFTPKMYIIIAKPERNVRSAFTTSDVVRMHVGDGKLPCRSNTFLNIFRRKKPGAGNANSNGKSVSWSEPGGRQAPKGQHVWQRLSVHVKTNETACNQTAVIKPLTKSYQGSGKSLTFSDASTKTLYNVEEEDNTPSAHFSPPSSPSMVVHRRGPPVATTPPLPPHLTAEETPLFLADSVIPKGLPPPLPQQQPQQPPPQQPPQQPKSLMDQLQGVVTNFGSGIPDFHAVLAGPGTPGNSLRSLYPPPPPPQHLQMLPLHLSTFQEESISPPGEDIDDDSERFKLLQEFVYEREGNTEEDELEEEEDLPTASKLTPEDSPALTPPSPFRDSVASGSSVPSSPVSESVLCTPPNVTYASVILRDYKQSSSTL

EC50 (rat mGlu1)	rat mGlu1 Glu Max (rat mGlu1)	IC50 (CYP450 2C9)	fraction unbound at 4 h, 5 µM [1]	IC50 (CYP450 3A4)	fraction unbound at 4 h, 5 µM [2]	clearance [3]	F po [3]	Vd [3]	half-life [3]	SMILES	Tmax [3]	Papp (P-gp)	efflux ratio (P-gp)	further results
0.037 µM	137%	> 30 µM	0.04	> 30 µM	0.063					Cn1cc(-c2cc(CNC(=O)c3cc(-c4ccco4)ccc3Cl)n(C)n2)cn1 [compound 4]				
0.558 µM	105%	> 30 µM	0.095	> 30 µM	0.143	2.9 mL/min/kg	45.7%	0.63 L/kg	3 h	Cn1nc(-c2ccnn2C)cc1CNC(=O)c1cc(-n2cccn2)ccc1Cl [compound 5]				
		6.4 µM	0.054	8.8 µM	0.037	15.3 mL/min/kg	64%	1.64 L/kg	1.1 h	Cc1nc2ccccc2cc1CNC(=O)c1cc(-n2cccn2)ccc1Cl [compound 6]	0.5 h	39 ×10⁻⁶ cm/s	0.5	
		5.9 µM	0.016	9 µM	0.053	8 mL/min/kg		1 L/kg	2.1 h	Cc1nc2c(F)cccc2cc1CNC(=O)c1cc(-n2cccn2)ccc1Cl [compound 7]				

SMILES	EC50 (rat mGlu1)	rat mGlu1 Glu Max (rat mGlu1)	IC50 (CYP450 2C9)	fraction unbound at 4 h, 5 µM [1]	IC50 (CYP450 3A4)	fraction unbound at 4 h, 5 µM [2]	clearance [3]	F po [3]	Vd [3]	half-life [3]	Tmax [3]	Papp (P-gp)	efflux ratio (P-gp)	further results
Cc1nc(C2CC2)ccc1CNC(=O)c1cc(-n2cccn2)ccc1Cl [compound 8]	0.107 µM	94%	22.3 µM	0.097	23.8 µM	0.063	26.4 mL/min/kg	42.8%	5.1 L/kg	2.1 h	0.5 h	42 ×10⁻⁶ cm/s	0.93	observations at >24-fold EC50 free brain ([4]; mouse PO): without any observed AEs; free brain concentration as fold of mouse EC50 at 500 mg/kg ([4]; mouse PO 500 mg/kg): ~90 fold; observations at 500 mg/kg ([4]; mouse PO 500 mg/kg): all animals displayed uncoordinated movements and were cold to the touch; free brain concentration reached without AEs ([4]; mouse PO dose escalation): ~1250 nM; free brain concentration as fold of mouse EC50 reached without AEs ([4]; mouse PO dose escalation (50, 150, 500 mg/kg)): > 24 fold; P-gp, MDCK-MDR1 ER (P-gp): 0.93; fraction unbound at 4 h, 5 µM [5]: 0.46; EC50 (h and r mGlu2-4,6-8): > 10 µM
